According to publication PMC12005470, “Effects of Cholesterol on the Breast Cancer Resistance Protein: Studies through the Synthesis and Biological Evaluation of Chemical Tools” (Chemmedchem, 2025):

What was measured:
[1] = target: T1, breast cancer resistance protein (BCRP/ABCG2) (Homo sapiens, UniProt Q9UNQ0); experiment: Ko143-sensitive accumulation in HEK293-ABCG2 cells, confocal microscopy; efflux by flow cytometry; format: cell-based
T1 sequence (Q9UNQ0 1-655): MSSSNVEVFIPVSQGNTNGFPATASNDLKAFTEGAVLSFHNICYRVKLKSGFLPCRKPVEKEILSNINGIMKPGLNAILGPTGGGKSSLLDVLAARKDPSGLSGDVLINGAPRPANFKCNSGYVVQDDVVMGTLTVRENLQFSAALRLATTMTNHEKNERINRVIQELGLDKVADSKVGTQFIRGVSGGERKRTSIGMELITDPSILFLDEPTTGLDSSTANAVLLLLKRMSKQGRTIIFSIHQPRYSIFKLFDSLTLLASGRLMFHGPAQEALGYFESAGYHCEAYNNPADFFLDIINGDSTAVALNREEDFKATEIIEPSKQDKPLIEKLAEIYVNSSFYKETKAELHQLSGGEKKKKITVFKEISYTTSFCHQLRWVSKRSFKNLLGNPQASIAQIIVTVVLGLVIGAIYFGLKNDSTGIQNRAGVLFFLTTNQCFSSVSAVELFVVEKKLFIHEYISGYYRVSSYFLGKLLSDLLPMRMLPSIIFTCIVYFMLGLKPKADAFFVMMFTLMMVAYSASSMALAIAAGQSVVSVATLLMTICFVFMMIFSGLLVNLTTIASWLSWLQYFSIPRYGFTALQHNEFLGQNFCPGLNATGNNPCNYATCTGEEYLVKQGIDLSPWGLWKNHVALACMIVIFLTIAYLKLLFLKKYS

[2] = target: T1, breast cancer resistance protein (BCRP/ABCG2); experiment: cell-based

IC50 [2] | Compound | Ko143-sensitive accumulation in HEK293-ABCG2 cells, confocal microscopy; efflux [1]
 | C=Cc1c(C)c2cc3nc(c4c5[nH]c(cc6nc(cc1[nH]2)C(C)=C6CC)c(C)c5C(=O)[C@@H]4C(=O)OC)[C@@H](CCC(=O)O)[C@@H]3C [compound 2, pheophorbide a] | ABCG2 inhibition by Ko143 caused an intracellular accumulation of hoechst and pheophorbide a (Figure S1)
2210 ± 500 nM | O=C(/C=C/c1ccccc1)c1ccccc1 [compound 5, Chalcone (5)] | 
